{"source": "patent US9708307B2", "about": "“Heterocyclic acetamide compound” (ASTELLAS PHARMA INC., priority 2013, dated 2017)", "data": [{"target": "T1, dopamine D1 receptor (Homo sapiens, UniProt P21728)", "T1 construct": "expressed in transfected cells", "T1 sequence (P21728 whole entry)": "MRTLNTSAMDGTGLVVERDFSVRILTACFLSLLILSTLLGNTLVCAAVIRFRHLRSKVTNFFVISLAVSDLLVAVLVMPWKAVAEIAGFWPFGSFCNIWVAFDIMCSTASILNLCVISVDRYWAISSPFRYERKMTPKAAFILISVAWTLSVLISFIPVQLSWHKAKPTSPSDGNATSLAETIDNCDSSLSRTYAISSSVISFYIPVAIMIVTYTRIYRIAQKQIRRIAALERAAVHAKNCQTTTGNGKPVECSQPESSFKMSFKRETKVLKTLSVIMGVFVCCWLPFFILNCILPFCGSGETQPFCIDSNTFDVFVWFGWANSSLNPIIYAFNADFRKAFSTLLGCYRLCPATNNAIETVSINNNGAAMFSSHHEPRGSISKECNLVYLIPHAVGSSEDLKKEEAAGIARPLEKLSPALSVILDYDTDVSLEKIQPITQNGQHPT", "experiment": "Evaluation of positive allosteric modulating activity: leftward shift of dopamine dose-response curve (cAMP) in CHO cells stably expressing human dopamine D1 receptor", "assay_type": "cell-based", "conditions": "extrapolated by linear function from dopamine EC50 at each test drug concentration", "method": "The composition of a buffer used in Test Example 1 is as follows.\nBuffer for assay=αMEM containing 1 μM IBMX.\nBuffer for dilution=αMEM containing 1 μM IBMX and 0.8 mM ascorbic acid.\nThe positive allosteric modulating activity of the compound of the present invention was evaluated according to the ratio of the leftward shift in a dopamine dose-response curve.\nThe leftward shift means that a dose-response curve of dopamine, in which the logarithm of a dose is on the horizontal axis (X-axis) and a response (cAMP concentration in this test) is on the vertical axis (Y-axis), shifts in parallel in the negative direction of the X-axis by the administration of a positive allosteric modulator.\nThe coding sequences of a dopamine D1 receptor in a human (Accession No.: NM_000794.3) were amplified by PCR and subcloned into a pEF-BOS vector. The resulting construct was transfected to CHO (-dhrf) cells (ATCC No.: CRL-9096) using Lipofectamine 2000 (Invitrogen Inc.). The clones stably transfected were obtained by selection using 100 nM MTX. The obtained cell clones were maintained in αMEM containing 10% FBS, 1 mg/mL penicillin, and 1 U/streptomycin.\nDose-Response Curve of Dopamine Using test drug was drawn on the basis of the following experiments.\nA buffer for assay of a test drug was serially diluted (concentrations 0.48 μM to 40 μM, 3-fold dilutions). The serially diluted solutions of the test drug were dispensed in each portion of 2.5 μL to black 384-well plates (Becton Dickinson, Inc.).\nCHO cells stably expressing a dopamine D receptor of a human were seeded in each portion of 5 μL in each well at a density of 5000 cells/well, centrifuged in a centrifuge for a plate (05PR-22, Hitachi Co., Ltd., 800 rpm), and then allowed to stand for 10 minutes.\nSerially diluted solutions of dopamine were prepared from a DMSO solution of dopamine (Sigma Co.) with a buffer for dilutions (concentrations 0.018 μM to 13.2 μM, 3-fold dilutions), and the serially diluted solutions of dopamine were dispensed in portions of 2.5 μL to each well of a plate.\nThe plate was stirred using a plate shaker (Sanko Junyaku (mx-5)) and then allowed to stand at room temperature for 20 minutes (final concentration: test drug 0 μM to 10 μM, dopamine 0 μM to 3.3 μM, 3-fold dilutions).\ncAMP was quantified using a cAMP femto 2 kit (Sceti Medical Labo K. K.) by the method described in the materials appended in the kit. A kit reagent cAMP-d2 solution and a kit reagent Anti cAMP-Cryptate solution were added in each portion of 5 μL to each well of the above-described plate, and the reaction was stopped. After incubating the plate at room temperature for 1 hour, the fluorescent intensity was measured (an excitation wavelength of 320 nm and a fluorescent wavelength of 665 nm) using a plate reader (2103 Multilabel Reader (registered trademark EnVision), PerkinElmer, Inc.).\nAs a control group, a well without addition of dopamine was taken as 0% and a well with a dopamine final concentration of 3.3 μM was taken as 100%.\nThe dose-response curve of dopamine was drawn on the basis of the experiment carried out in the same manner as in (1) without the addition of a test drug.\nIn order to quantitatively compare the activity of the test drug, the activity was evaluated by EC50 2-fold potentiation.\nIn the present specification, “EC50 2-fold potentiation” is the test drug concentrations that enhanced the EC50 two-fold in the dose-response curve (2) of dopamine.\nFrom the dose-response curve (1) of dopamine in the presence of the test drug at each concentration, the EC50 at the test drug concentration was obtained. From the correlation between the concentration of the test drug and the EC50, EC50 2-fold potentiation was calculated by extrapolation by a linear function (straight line).\nFurther, the EC50 value was calculated from the dose-response curves (1) and (2) of dopamine, using non-linear regression analysis. […]", "units": {"Data 1: EC50 2-fold potentiation (test drug concentration that enhanced the dopamine EC50 two-fold)": "nM"}, "values": [{"smiles": "CN(Cc1nc2cc(Cl)c(F)cc2[nH]1)C(=O)Cn1c(=O)oc2ccc(Cl)cc21.Cl", "note": "[Example 14]", "Data 1: EC50 2-fold potentiation (test drug concentration that enhanced the dopamine EC50 two-fold)": 1700}, {"smiles": "CN(Cc1nc2cc(C(F)(F)F)ccc2[nH]1)C(=O)Cn1c(=O)oc2ccc(Cl)c(F)c21", "note": "[Example 17]", "Data 1: EC50 2-fold potentiation (test drug concentration that enhanced the dopamine EC50 two-fold)": 470}, {"smiles": "CN(Cc1nc2cc(Cl)ccc2[nH]1)C(=O)Cn1c(=O)oc2ccc(C(F)(F)F)cc21", "note": "[Example 25]", "Data 1: EC50 2-fold potentiation (test drug concentration that enhanced the dopamine EC50 two-fold)": 450}, {"smiles": "Cc1cc2nc(CN(C)C(=O)Cn3c(=O)oc4ccc(Cl)cc43)[nH]c2cc1Cl", "note": "[Example 30]", "Data 1: EC50 2-fold potentiation (test drug concentration that enhanced the dopamine EC50 two-fold)": 270}, {"smiles": "CN(Cc1nc2cc(Cl)c(Cl)cc2n1CC(C)(C)O)C(=O)Cn1c(=O)oc2ccc(Cl)cc21", "note": "[Example 37]", "Data 1: EC50 2-fold potentiation (test drug concentration that enhanced the dopamine EC50 two-fold)": 300}, {"smiles": "CN(Cc1nc2cc(Cl)c(Cl)cc2n1CCO)C(=O)Cn1c(=O)oc2ccc(Cl)cc21.Cl", "note": "[Example 7, 2-(5-chloro-2-oxo-1,3-benzoxazol-3 (2H)-yl)-N-{[5,6-dichloro-1-(2-hydroxyethyl)-1H-benzimidazol-2-yl]methyl}-N-methylacetamide hydrochloride]", "Data 1: EC50 2-fold potentiation (test drug concentration that enhanced the dopamine EC50 two-fold)": 100}, {"smiles": "CN(Cc1nc2c(Cl)cccc2[nH]1)C(=O)Cn1c(=O)oc2ccc(Cl)cc21", "note": "[Example 34]", "Data 1: EC50 2-fold potentiation (test drug concentration that enhanced the dopamine EC50 two-fold)": 990}, {"smiles": "CN(Cc1nc2cc(C(F)(F)F)ccc2[nH]1)C(=O)Cn1c(=O)oc2ccc(Cl)cc21.Cl", "note": "[Example 1, 2-(5-chloro-2-oxo-1,3-benzoxazol-3 (2H)-yl)-N-methyl-N-{[5-(trifluoromethyl)-1H-benzimidazol-2-yl]methyl}acetamide hydrochloride]", "Data 1: EC50 2-fold potentiation (test drug concentration that enhanced the dopamine EC50 two-fold)": 460}, {"smiles": "CN(Cc1nc2cc(Cl)ccc2[nH]1)C(=O)Cn1c(=O)oc2ccc(OC(F)(F)F)cc21", "note": "[Example 26]", "Data 1: EC50 2-fold potentiation (test drug concentration that enhanced the dopamine EC50 two-fold)": 370}, {"smiles": "CN(Cc1nc2c(C(F)(F)F)cccc2[nH]1)C(=O)Cn1c(=O)oc2ccc(Cl)cc21.Cl", "note": "[Example 16]", "Data 1: EC50 2-fold potentiation (test drug concentration that enhanced the dopamine EC50 two-fold)": 620}, {"smiles": "CN(Cc1nc2c(C(F)(F)F)cccc2[nH]1)C(=O)Cn1c(=O)oc2ccc(C(F)(F)F)cc21", "note": "[Example 39]", "Data 1: EC50 2-fold potentiation (test drug concentration that enhanced the dopamine EC50 two-fold)": 400}, {"smiles": "CN(Cc1nc2cc(C3CC3)ccc2[nH]1)C(=O)Cn1c(=O)oc2ccc(C(F)(F)F)cc21", "note": "[Example 22]", "Data 1: EC50 2-fold potentiation (test drug concentration that enhanced the dopamine EC50 two-fold)": 390}, {"smiles": "CN(Cc1nc2cc(OC(F)(F)F)ccc2[nH]1)C(=O)Cn1c(=O)oc2ccc(Cl)cc21", "note": "[Example 31]", "Data 1: EC50 2-fold potentiation (test drug concentration that enhanced the dopamine EC50 two-fold)": 1100}, {"smiles": "CN(Cc1nc2cc(C(F)(F)F)ccc2[nH]1)C(=O)Cn1c(=O)oc2ccc(C(F)(F)F)c(F)c21", "note": "[Example 27]", "Data 1: EC50 2-fold potentiation (test drug concentration that enhanced the dopamine EC50 two-fold)": 460}, {"smiles": "COc1cc2[nH]c(CN(C)C(=O)Cn3c(=O)oc4ccc(Cl)cc43)nc2cc1Br.Cl", "note": "[Example 15]", "Data 1: EC50 2-fold potentiation (test drug concentration that enhanced the dopamine EC50 two-fold)": 740}, {"smiles": "CN(Cc1nc2cc(Br)ccc2[nH]1)C(=O)Cn1c(=O)oc2ccc(Cl)cc21", "note": "[Example 20]", "Data 1: EC50 2-fold potentiation (test drug concentration that enhanced the dopamine EC50 two-fold)": 440}, {"smiles": "CN(Cc1nc2cc(Cl)ccc2[nH]1)C(=O)Cn1c(=O)oc2ccc(Cl)cc21.Cl", "note": "[Example 12]", "Data 1: EC50 2-fold potentiation (test drug concentration that enhanced the dopamine EC50 two-fold)": 1000}]}, {"system": "ddY male mice", "experiment": "Y-maze test: improvement effect on cognitive impairment caused by MK-801 (spontaneous alternation behavior)", "assay_type": "in vivo", "conditions": "oral, once, one hour before test, MK-801 0.15 mg/kg i.p. 20 minutes before", "method": "The improvement effect of the compound of the present invention on cognitive impairment was evaluated using a Y-maze test which is an experiment system of alternation behavior.\nAs a Y-maze, a maze, in which three tracks having a length of one arm of 40 cm, a height of a wall of 13 cm, a width of a bottom of 3 cm, and a width of a top of 10 cm are each joined in the Y shape at a degree of 120, was used. […]\nThe above-described mice were allowed to explore freely for 8 minutes after being placed at an end of one track in the Y-maze, and the track and the sequence in which the mice entered were recorded. The number of times the mice entered within the measurement time was counted, and taken as a total entry number. Among these, a combination in which the mice successively entered different three tracks (for example, when taking three arms as a, b, and c, respectively, a case where the order of the arm that entered was “abccbacab” was counted as 4, inclusive of overlapping) was considered as a spontaneous alternation behavior number. The spontaneous alternation behavior rate was calculated by the following calculation and used as an index for a spontaneous alternation behavior: Spontaneous alternation behavior rate=spontaneous alternation behavior number/(total number of entries−2)×100 […]\nThe measured values were expressed in average values±standard errors for each group. […]", "units": {"Data 2: effective concentration (improved the spontaneous alternation behavior)": "mg/kg"}, "values": [{"smiles": "CN(Cc1nc2cc(C(F)(F)F)ccc2[nH]1)C(=O)Cn1c(=O)oc2ccc(Cl)cc21.Cl", "note": "[Example 1, 2-(5-chloro-2-oxo-1,3-benzoxazol-3 (2H)-yl)-N-methyl-N-{[5-(trifluoromethyl)-1H-benzimidazol-2-yl]methyl}acetamide hydrochloride]", "Data 2: effective concentration (improved the spontaneous alternation behavior)": 0.1}, {"smiles": "CN(Cc1nc2cc(Br)ccc2[nH]1)C(=O)Cn1c(=O)oc2ccc(Cl)cc21", "note": "[Example 20]", "Data 2: effective concentration (improved the spontaneous alternation behavior)": 1.0}]}]}
